Assay results reported in patent US12110295B2, “WD40 repeat domain protein 5 (WDR5) degradation/disruption compounds and methods of use” (Icahn School of Medicine at Mount Sinai, priority 2018, dated 2024).
“Also recorded” adds a separate entry of the source.

How the values were obtained:
[1] = tested on: MV4;11 cells; experiment: Cell viability assay (trypan blue, live cell count) in MV4;11 cells; assay type: cell-based; conditions: 0.1, 0.5, 1, 5 and 10 μM, 72 h, FIG. 4
Protocol: MV4;11 cells were treated with DMSO or the indicated compounds at indicated concentration of 0.1 μM, 0.5 μM, 1 μM, 5 μM, and 10 μM for 72 hours.
MV4;11 cells were purchased from ATCC and cultured in RPMI 1640 supplemented with 10% FBS and 1% Penicillin/Streptomycin.
0.5×10^6 MV4;11 cells were seeded in 2 mL medium for each well in 12-well plates. WDR5 degraders in DMSO were added to the medium at indicated concentrations. DMSO was used as the control. Each treatment was done in duplicate wells. After 72 h treatment, 1 part cell suspension from each treatment was mixed with 1 part 0.4% trypan blue respectively. The mixture was allowed to incubate for ˜3 min at room temperature and live cells were counted by automated cell counter.

[2] = molecular target: T1, WDR5 (Homo sapiens, UniProt P61964); conditions: MV4;11 cells, summary of FIGS. 1-3
Protocol: MV4;11 cells were treated with DMSO or indicated compounds at 1 μM and 10 μM for 18 hours.
MV4;11 cells were treated with DMSO or indicated compounds at 0.1 μM, 0.5 μM, 1 μM, 5 μM, and 10 μM for 18 hours.
MV4;11 cells were treated with DMSO or indicated compounds at a fixed concentration of 0.5 μM for 1, 2, 4, 8, 16, or 24 hours.
MV4;11 cells were treated with DMSO or indicated compounds at 0.1 μM and 0.5 μM for 18 hours. […] MV4;11 cells were treated with DMSO or indicated compounds at 0.1 μM and 1.0 μM for 18 hours.
WDR5 degraders were dissolved in DMSO and DMSO with no degraders was used as the control. 1×10^6 MV4;11 cells or 1×10^5 MIAPACA2 or 2×10^5 Hela cells were seeded in 2 mL medium for each well in 24-well plates.
And cells were collected at indicated timepoints: 1 h, 2 h, 4 h, 8 h, 16 h, and 24 h.

[3] = molecular target: T1, WDR5; experiment: Western blot of WDR5 protein levels in MIAPACA2 cells; assay type: cell-based; parameters: After WDR5 degrader treatment, cells were collected and lysed; endogenous in cells; host or cells: MV4;11 and/or MIAPACA2; conditions: MIAPACA2 cells, 0.1, 0.5, 1, 5 and 10 μM, 18 h, FIG. 5
Protocol: MIAPACA2 cells were treated with DMSO or indicated compounds at 0.1 μM, 0.5 μM, 1 μM, 5 μM, and 10 μM for 18 hours.
MIAPACA2 cells were treated with DMSO or indicated compounds at 0.5 μM and 1.0 μM for 18 hours.
MIAPACA2 cells were treated with DMSO or indicated compounds at 0.1 μM and 0.5 μM for 18 hours.
MIAPACA2 cells were treated with DMSO or indicated compounds at 0.5 μM and 1.0 μM or at 1.0 μM and 10 μM for 18 hours.
MIAPACA2 and Hela cells were cultured in DMEM supplemented with 10% FBS and 1% Penicillin/Streptomycin.
WDR5 degraders were dissolved in DMSO and DMSO with no degraders was used as the control. 1×10^6 MV4;11 cells or 1×10^5 MIAPACA2 or 2×10^5 Hela cells were seeded in 2 mL medium for each well in […].
For prescreening of all the compounds, each test compound was added to the medium at indicated concentrations. After 18 h treatment, cells were collected.
After WDR5 degrader treatment, cells were collected and lysed. Total cell lysates were used for western blot. The following primary antibodies were used: WDR5 (Santa Cruz), vinculin (Cell Signaling Technology), tubulin (Cell Signaling Technology), GAPDH (Santa Cruz). Blots were imaged using fluorescence-labeled secondary antibodies on ChemiDoc™ Imaging Systems.

[4] = molecular target: T1, WDR5; experiment: Screening of putative WDR5 degraders by Western blot in MV4;11 and/or MIAPACA2 cells; assay type: cell-based; parameters: After WDR5 degrader treatment, cells were collected and lysed; endogenous in cells; host or cells: MV4;11 and/or MIAPACA2; conditions: summary of screening, FIGS. 6-10
How it was run: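 MV4;11 (1×10^6/well) or MIAPACA2 (1×10^5/well) cells treated 18 h with compound at paired doses between 0.1 and 10 μM, DMSO as control. Total lysates immunoblotted for WDR5 with vinculin, tubulin or GAPDH loading controls; fluorescent secondary detection.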

## Cc1ncsc1-c1ccc(CNC(=O)[C@@H]2C[C@@H](O)CN2C(=O)[C@@H](NC(=O)CCCCCCCCCC(=O)NCCN2CCN(Cc3cccc(-c4ccc(N5CCN(C)CC5)c(NC(=O)c5c[nH]c(=O)cc5C(F)(F)F)c4)c3)CC2)C(C)(C)C)cc1 [XF048-133, N^1-((S)-1-((2S,4R)-4-hydroxy-2-((4-(4-methylthiazol-5-yl)benzyl)carbamoyl)pyrrolidin-1-yl)-3,3-dimethyl-1-oxobutan-2-yl)-N^11-(2-(4-((4′-(4-methylpiperazin-1-yl)-3′-(6-oxo-4-(trifluoromethyl)-1,6-dihydropyridine-3-carboxamido)-[1,1′-biphenyl]-3-yl)methyl)piperazin-1-yl)ethyl)undecanediamide]
[1]
  viability of MV4;11 cells: reduced the viability of MV4;11 cells much more significantly than the WDR5 inhibitor OICR-9429; also recorded: reduced the viability of MV4;11 cells much more significantly than the WDR5 inhibitor OICR-9419
[2]
  reduction of WDR5 protein levels in a concentration- and time-dependent manner: effective in reducing WDR5 protein levels
[3]
  reduction of WDR5 protein levels, concentration-dependent: reduced WDR5 protein levels
[4]
  effective degradation of WDR5 in MV4;11 and/or MIAPACA2 cells: able to effectively degrade WDR5
